Where two headings read alike, the source gives them in different places.

For test [1], the target named is T1, Bovine XO (Bos taurus, UniProt P80457). Description: Determination of inhibitory potency against XO activity. The test is classed as biochemical.
Test [2] deals with T1, Bovine XO. Conditions: cited from earlier work.

T1 sequence (P80457 whole entry): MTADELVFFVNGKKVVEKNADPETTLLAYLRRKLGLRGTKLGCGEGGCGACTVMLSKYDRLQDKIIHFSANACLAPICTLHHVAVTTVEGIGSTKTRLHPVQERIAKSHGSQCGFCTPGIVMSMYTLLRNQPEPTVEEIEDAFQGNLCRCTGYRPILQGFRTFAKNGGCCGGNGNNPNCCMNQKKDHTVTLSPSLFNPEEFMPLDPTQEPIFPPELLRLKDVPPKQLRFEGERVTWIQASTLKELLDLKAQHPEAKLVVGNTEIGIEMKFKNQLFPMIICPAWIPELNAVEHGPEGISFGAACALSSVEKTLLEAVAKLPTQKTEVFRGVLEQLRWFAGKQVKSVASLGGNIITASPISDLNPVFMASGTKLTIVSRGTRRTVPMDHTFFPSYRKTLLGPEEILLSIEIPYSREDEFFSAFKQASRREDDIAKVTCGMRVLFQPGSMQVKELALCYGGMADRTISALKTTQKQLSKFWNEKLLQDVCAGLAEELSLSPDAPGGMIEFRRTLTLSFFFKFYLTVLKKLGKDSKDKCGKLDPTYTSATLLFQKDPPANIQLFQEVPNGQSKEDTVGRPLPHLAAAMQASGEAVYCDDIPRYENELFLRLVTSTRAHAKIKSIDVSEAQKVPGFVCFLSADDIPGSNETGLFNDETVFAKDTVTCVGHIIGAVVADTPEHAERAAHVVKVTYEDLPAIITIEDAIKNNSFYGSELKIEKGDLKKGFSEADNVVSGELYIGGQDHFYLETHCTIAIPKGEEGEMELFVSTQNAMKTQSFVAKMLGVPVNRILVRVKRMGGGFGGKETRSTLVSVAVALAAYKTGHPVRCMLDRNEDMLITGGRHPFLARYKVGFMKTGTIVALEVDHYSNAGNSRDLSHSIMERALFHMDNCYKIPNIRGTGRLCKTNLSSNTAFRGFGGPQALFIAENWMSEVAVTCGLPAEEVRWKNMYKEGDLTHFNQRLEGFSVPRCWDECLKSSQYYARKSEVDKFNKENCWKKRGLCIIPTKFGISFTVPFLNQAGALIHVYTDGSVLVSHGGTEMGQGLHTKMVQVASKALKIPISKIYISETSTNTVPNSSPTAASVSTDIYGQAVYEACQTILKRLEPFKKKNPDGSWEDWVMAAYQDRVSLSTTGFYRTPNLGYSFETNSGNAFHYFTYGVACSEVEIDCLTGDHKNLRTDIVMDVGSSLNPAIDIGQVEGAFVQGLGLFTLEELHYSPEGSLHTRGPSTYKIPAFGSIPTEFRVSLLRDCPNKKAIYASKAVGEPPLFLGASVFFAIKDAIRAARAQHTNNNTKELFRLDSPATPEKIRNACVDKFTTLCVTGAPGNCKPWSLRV

In turn, `O=C(/C=C/c1ccc(O)c(O)c1)OCCc1ccccc1` [Compound 1, (E)-phenethyl 3-(3,4-dihydroxyphenyl)acrylate] returned an IC50 against Bovine XO [1] of 3900 nM. Also, the “mode of XO inhibition” value at Bovine XO [2] (kinetic studies) is given as “competitive inhibitor”. The “XO inhibitory potency (in words)” value at Bovine XO [2] (literature statement) was “low micromolar range”.
Turning to `O=C(/C=C/c1ccc(O)c(O)c1)Oc1ccccc1` [Compound 8, (E)-phenyl 3-(3,4-dihydroxyphenyl)acrylate], at Bovine XO [1], the IC50 was roughly 250 nM.
In the case of `Cc1nc(-c2ccc(OCC(C)C)c(C#N)c2)sc1C(=O)O` [febuxostat, Febuxostat, reference compound], the “XO inhibitory potency (in words)” value on Bovine XO [1] (reported by others [41] or measured by the authors) is “low nanomolar or subnanomolar range”.

These data come from publication PMC11908448 (Bioorganic chemistry, 2019).
